Measurements as given in patent US8410168B2, “Methods and compositions for treating ophthalmic conditions with retinyl derivatives” (Acucela, Inc., priority 2004, dated 2013).

Target: T1, LRAT (Bos taurus, UniProt Q9BGL2)
T1 construct: bovine RPE microsomes are used as an enzyme source; from tissue; host or cells: bovine retinal pigment epithelium (membranes / microsomes)
T1 sequence (Q9BGL2 1-230): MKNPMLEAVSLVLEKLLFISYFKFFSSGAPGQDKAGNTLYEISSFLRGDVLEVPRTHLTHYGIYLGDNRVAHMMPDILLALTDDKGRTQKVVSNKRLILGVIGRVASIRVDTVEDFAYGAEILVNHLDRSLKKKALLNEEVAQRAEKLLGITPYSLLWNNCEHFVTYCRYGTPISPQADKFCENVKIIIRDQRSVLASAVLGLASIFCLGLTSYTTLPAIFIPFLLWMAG
Assay: In vitro LRAT assay, retinyl ester synthesis by bovine RPE membranes/microsomes
Assay type: biochemical
Procedure: We examined the effects on HPR on enzymes or proteins of the visual cycle using in vitro biochemical assays. Specifically, the utilization of exogenous all-trans retinol by membranes prepared from bovine RPE was studied. […] Steady-state levels of HPR in the RPE (determined from mice which have been given 20 mg/kg HPR, i.p., daily for 28 days) range from 5-10 μM. With this in mind, we examined the effects of 10 μM HPR on production of all-trans retinyl esters and 11-cis retinol in assays similar to those described above. […] In the presence of endogenous retinoids, utilization of exogenous all-trans retinol is extremely low and 11-cis retinol is produced solely from the endogenous all-trans retinyl esters. […] Thus, the retinoic acids appear to affect at least two targets in the visual cycle. We have determined that HPR-induced reduction of 11-cis retinol biosynthesis occurs via LRAT inhibition and reduction in all-trans retinyl ester levels. In this situation, the isomerase enzyme is starved for substrate and 11-cis retinol production declines.
A second target for HPR in the visual cycle was identified using in vitro biochemical assays. Lecithin retinol acyl transferase (LRAT) catalyzes the conversion of retinol into retinyl esters. LRAT is critical not only for retinol-retinyl ester homeostasis but also for generation of substrate for visual chromophore biosynthesis. The data shown in panel A of FIG. 16 illustrate the inhibitory effect of HPR on the rate of retinyl ester synthesis. In this assay, bovine RPE microsomes are used as an enzyme source and all-trans retinol (atROL) is the substrate. […] A secondary transformation (Eadie-Hofstee) of the kinetic data in panel A reveal that the mode of inhibition is competitive (see FIG. 16, panel B). Therefore, HPR competes with atROL for binding sites on LRAT. The apparent inhibition constant (Ki) was determined to be ˜6 μM. This means that at 6 μM HPR, the rate of retinyl ester synthesis would be decreased by 50%. In a separate study, we have determined that HPR concentrations in the RPE approach 10 μM with a 10 mg/kg dose of HPR.

Question: Which results are given for `CC1=C(/C=C/C(C)=C/C=C/C(C)=C/C(=O)Nc2ccc(O)cc2)C(C)(C)CCC1` [HPR, N-(4-hydroxyphenyl)retinamide]?
Answer: mode of inhibition of LRAT (Eadie-Hofstee transformation): competitive; net retinyl ester synthesis (bovine RPE microsomes, atROL substrate): decreases net retinyl ester synthesis in a concentration-dependent manner; Ki (bovine RPE microsomes, atROL substrate, read-out: apparent inhibition constant (Ki), LRAT): ~6 µM; IC50 (membranes from bovine RPE, exogenous all-trans retinol, read-out: half-maximal inhibition of LRAT): ~20 µM
